Measurements published in ChEMBL document CHEMBL3627644, “2-Arylquinazolin-4(3H)-ones: A new class of α-glucosidase inhibitors” (Bioorg Med Chem, 2015).

Columns and labels:
[1] = Inhibition of Saccharomyces cerevisiae alpha-glucosidase for 15 mins by multiplate reader method using 0.7 mM p-nitrophenyl-alpha-D-glucopyranoside as substrate
[2] = Competitive inhibition of Saccharomyces cerevisiae alpha-glucosidase by multiplate reader method using p-nitrophenyl-alpha-D-glucopyranoside as substrate
[3] = Mixed inhibition of Saccharomyces cerevisiae alpha-glucosidase by multiplate reader method using p-nitrophenyl-alpha-D-glucopyranoside as substrate
[4] = Non-Competitive inhibition of Saccharomyces cerevisiae alpha-glucosidase by multiplate reader method using p-nitrophenyl-alpha-D-glucopyranoside as substrate

IC50 ([1]; read-out: IC50)	further results	SMILES
118000 nM	–	COc1cc(-c2nc3ccccc3c(=O)[nH]2)cc(OC)c1OC
20000 nM	IC50 [1]: Not Active	O=c1[nH]c(-c2ccc([N+](=O)[O-])cc2)nc2ccccc12
14600 nM	–	COc1cccc(-c2nc3ccccc3c(=O)[nH]2)c1O
76000 nM	–	Cc1ccc(-c2nc3ccccc3c(=O)[nH]2)cc1
860 nM	Ki [2]: 283 nM	COc1ccc(-c2nc(O)c3ccccc3n2)cc1OC
570 nM	Ki [3]: 6600 nM	CCOc1ccccc1-c1nc2ccccc2c(=O)[nH]1
2750 nM	–	CN(C)c1ccc(-c2nc(O)c3ccccc3n2)cc1
1500 nM	–	O=c1[nH]c(-c2ccc(O)c(O)c2)nc2ccccc12
1900 nM	–	COc1ccc(-c2nc3ccccc3c(=O)[nH]2)cc1O
400 nM	Ki [4]: 250 nM	COc1ccc(-c2nc(O)c3ccccc3n2)cc1
300 nM	Ki [2]: 430 nM	CCOc1cc(-c2nc3ccccc3c(=O)[nH]2)ccc1O
1150 nM	–	COc1ccc(O)c(-c2nc3ccccc3c(=O)[nH]2)c1
68100 nM	–	O=c1[nH]c(-c2c(Cl)cccc2Cl)nc2ccccc12
10500 nM	–	O=c1[nH]c(-c2ccc(O)cc2)nc2ccccc12
18000 nM	–	O=c1[nH]c(-c2cccc([N+](=O)[O-])c2)nc2ccccc12
16200 nM	–	O=c1[nH]c(-c2cc(Cl)ccc2Cl)nc2ccccc12
–	IC50 [1]: Not Active	O=c1[nH]c(-c2cccc(O)c2)nc2ccccc12
10400 nM	–	O=c1[nH]c(-c2ccccc2O)nc2ccccc12
3250 nM	–	CCOc1ccc(-c2nc3ccccc3c(=O)[nH]2)cc1
–	Ki [2]: 736000 nM	C[C@H]1O[C@H](O[C@H]2[C@H](O)[C@@H](O)[C@@H](O[C@H]3[C@H](O)[C@@H](O)C(O)O[C@@H]3CO)O[C@@H]2CO)[C@H](O)[C@@H](O)[C@@H]1N[C@H]1C=C(CO)[C@@H](O)[C@H](O)[C@H]1O (stereo partly drawn) [ACARBOSE]
2350 nM	–	O=c1[nH]c(-c2cc(O)ccc2O)nc2ccccc12
1300 nM	–	O=c1[nH]c(-c2ccccc2Cl)nc2ccccc12
9730 nM	–	O=c1[nH]c(-c2c(O)cccc2Br)nc2ccccc12
